PubChem BioAssay (NCI)
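Interpolation was linear, between the two tested concentrations surrounding the appropriate level; five concentrations were tested over 48 hours in 96-well plates. The concentration for 50% growth inhibition is given as GI50. TGI: concentration producing complete growth inhibition.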

Tests used:
Experiment in all cases: NCI anticancer screen, dose series, 48 h
[1] = system: K-562 leukemia
[2] = system: OVCAR-3 ovarian
[3] = system: HCT-116 colon
[4] = system: SNB-19 CNS
[5] = system: HCC-2998 colon
[6] = system: ACHN renal
[7] = system: PC-3 prostate
[8] = system: MALME-3M melanoma
[9] = system: IGROV1 ovarian
[10] = system: TK-10 renal

SMILES	GI50 [1]	TGI [1]	GI50 [2]	TGI [2]	GI50 [3]	TGI [3]	GI50 [4]	TGI [4]	GI50 [5]	TGI [5]	GI50 [6]	TGI [6]	GI50 [7]	TGI [7]	GI50 [8]	TGI [8]	GI50 [9]	TGI [9]	GI50 [10]	TGI [10]
C[CH2][Pb]([CH2]C)([CH2]C)[O]C(=O)c1ccc2ccccc2n1	> 10 µM	> 10 µM	> 10 µM	> 10 µM	> 10 µM	> 10 µM	> 10 µM	> 10 µM	> 10 µM	> 10 µM	> 10 µM	> 10 µM	> 10 µM	> 10 µM	> 10 µM	> 10 µM	> 10 µM	> 10 µM	–	–
COc1ccc(OC)c(Cn2cc3c(c2)-c2oncc2CC3)c1	0.762 µM	> 57.8 µM	2.29 µM	5.98 µM	3.32 µM	39 µM	4.74 µM	> 100 µM	4.72 µM	38.1 µM	6.07 µM	> 100 µM	5.89 µM	> 100 µM	3.03 µM	40.7 µM	3.87 µM	> 100 µM	4.23 µM	> 100 µM
CCC1(O)C(=O)OCc2c1cc1n(c2=O)Cc2cc3cc(N)ccc3nc2-1 (stereo not given)	–	31.3 µM	–	0.469 µM	–	–	–	3.36 µM	–	1.37 µM	–	0.0142 µM	–	> 100 µM	–	1.33 µM	–	> 55.2 µM	–	> 28.2 µM
Nc1ccc(-c2nc3ccccc3[nH]2)c2ccccc12	2.54 µM	> 100 µM	2.5 µM	> 41.4 µM	3.3 µM	12.6 µM	3.57 µM	> 100 µM	2.46 µM	10.5 µM	8.41 µM	41.3 µM	6.49 µM	> 100 µM	1.36 µM	21.6 µM	3.36 µM	42.6 µM	7.24 µM	> 100 µM
Cc1c(C2=C(c3cn(C)c4ccccc34)C(=O)NC2=O)c2ccccc2n1C	1.21 µM	> 25 µM	0.882 µM	4.73 µM	1.38 µM	> 25 µM	> 25 µM	> 25 µM	24.9 µM	> 25 µM	4.57 µM	> 25 µM	4.38 µM	> 25 µM	> 25 µM	> 25 µM	> 10.2 µM	> 25 µM	6 µM	> 25 µM
CN1CCN(Cc2ccc(NC(=O)c3[nH]ncc3Nc3ncnc4sc5c(c34)CCCC5)cc2)CC1	0.198 µM	1.14 µM	0.22 µM	1.34 µM	–	–	0.282 µM	1.48 µM	0.535 µM	2.07 µM	0.19 µM	0.969 µM	0.198 µM	1.33 µM	1.35 µM	2.82 µM	0.258 µM	1.3 µM	1.14 µM	2.4 µM
CCN(Cc1ccc(Cl)s1)c1ccc(CO)c(Cl)c1	0.575 µM	> 53.9 µM	0.295 µM	1.21 µM	0.0464 µM	11.3 µM	20.7 µM	> 93.5 µM	5.81 µM	28.6 µM	4.68 µM	> 100 µM	12.7 µM	49.4 µM	10 µM	28.1 µM	0.0722 µM	0.337 µM	0.0452 µM	0.221 µM
